# Results taken from patent US9198429B2, “Heterocyclic alkanol-derivatives” (BAYER INTELLECTUAL PROPERTY GMBH, priority 2011, dated 2015).
# “And” between values parts separate entries of the source, which are not always exact repeats. Equal values may be shown once.
# Assays:
# [1] = tested on: Pyricularia oryzae; assay type: in vivo; conditions: application rate 1000 ppm, rice plants, protective, evaluation 6 days after inoculation
# [2] = for log P [b]: pH 2.7; for log P [c]: pH 7.8; for log P [a]: pH 2.3
# [3] = tested on: Uromyces appendiculatus; assay: Example H: Uromyces test (beans)/protective; assay type: in vivo; conditions: application rate 10 ppm, protective, evaluation 10 days after inoculation
# Experimental: To test for protective activity, young plants are sprayed with the preparation of active compound at the stated application rate. After the spray coating has dried on, the plants are inoculated with an aqueous spore suspension of bean rust (Uromyces appendiculatus) and then remain in an incubation cabin at 100% relative atmospheric humidity and 20° C. for one day. The plants are then placed in a greenhouse at 90% relative atmospheric humidity and a temperature of about 21° C. […]
# [4] = tested on: Sphaerotheca fuliginea; assay: Example A: Sphaerotheca test (cucumber)/protective; assay type: in vivo; conditions: 500 ppm, cucumber plants, protective, evaluation 7 days after inoculation
# [5] = physchem
# [6] = tested on: Sphaerotheca fuliginea; assay: Example E: Sphaerotheca test (cucumber)/protective, comparison with EP-A 395 175; assay type: in vivo; conditions: application rate 100 ppm, cucumber plants, protective, evaluation 7 days after inoculation
# [7] = tested on: Pyrenophora teres; assay: Example C: Pyrenophora teres test (barley)/protective; assay type: in vivo; conditions: 500 ppm, protective, evaluation 7-9 days after inoculation
# [8] = logP by HPLC on reversed-phase columns (EEC directive 79/831 Annex V.A8)
# [9] = tested on: Pyrenophora teres; assay: Example F: Pyrenophora teres test (barley)/protective, comparison with EP-A 409 418; assay type: in vivo; conditions: application rate 500 ppm, protective, evaluation 7-9 days after inoculation
# [10] = tested on: Alternaria solani; assay: Example B: Alternaria test (tomato)/protective; assay type: in vivo; conditions: 500 ppm, tomato plants, protective, evaluation 7 days after inoculation
smiles,measurement,setting,value
CC(C)(C)C(O)(CCc1ccc(Cl)cc1)c1cncs1 (stereo not drawn) [drawing 38],Efficacy in %,[1],22%
CC(C)(Cc1ccc(F)cc1Cl)C(C)(O)c1cncs1 (stereo not drawn) [Compound 19],log P [b],[2],3.14^[b]
OC(c1ccc(Br)cc1)(c1cnco1)C1(Oc2ccc(F)cc2F)CC1 (stereo not drawn) [Compound 6],log P [b],[2],3.59
same,log P [c],[2],3.56
"CC(C)(C)C(O)(CCc1ccc(Cl)cc1)c1cncs1 (stereo not drawn) [drawing 41, reference compound]",Efficacy in %,[3],0%
CC(c1ccc(Cl)cc1Cl)C(O)(c1cncs1)C(C)(C)C (stereo not drawn) [Compound 23],log P [a],[2],4.4[a]
same,Efficacy (%),[4],70%
"OC(c1cncs1)(c1ccc(F)cc1F)C1(Oc2ccc(F)cc2F)CC1 (stereo not drawn) [Compound 11, [1-(2,4-difluorophenoxy)cyclopropyl](2,4-difluorophenyl)1,3-thiazol-5-ylmethanol]",Efficacy (%),[4],95%
same,chromatographic logP,[5]; pH 2.7,3.35
same,chromatographic logP,[5]; pH 7.8,3.3
CC(C)(C)C(O)(CCc1ccc(Cl)cc1)Cc1cncs1 (stereo not drawn),Efficacy in %,[6],8%
CC(C)(Cc1ccc(Br)cc1)C(C)(O)c1cncs1 (stereo not drawn) [Compound 18],log P [b],[2],3.22^[b]
OC(c1ccc(Br)cc1)(c1cnco1)C1(Oc2ccccc2)CC1 (stereo not drawn) [Compound 5],log P [b],[2],3.51
same,log P [c],[2],3.48
CC(C)(C)C(O)(c1cncs1)C(C)(C)Oc1ccc(I)cc1F (stereo not drawn) [Compound 14],log P [b],[2],4.7^[b]
CC(C)(C)C(O)(c1cncs1)C(C)(C)Oc1ccc(Br)cc1 (stereo not drawn) [Compound 15],log P [b],[2],4.27^[b]
same,Efficacy (%),[4],99%
"OC(Cc1cnc(Cl)s1)(c1ccc(Cl)cc1)C1(Oc2ccc(F)cc2)CC1 (stereo not drawn) [Compound 3, 1-(4-chlorophenyl)-2-(2-chloro-1,3-thiazol-5-yl)-1-[1-(4-fluorophenoxy)cyclopropyl]ethanol]",chromatographic logP,[5]; pH 2.7,4.55
same,chromatographic logP,[5]; pH 7.8,4.53
CC(C)(C)C(O)(COc1ccc(Cl)cc1)Cc1cncs1 (stereo not drawn),Efficacy in %,[6],5%
COc1ccc(OC(C)(C)C(O)(c2cncs2)C(C)(C)C)cc1 (stereo not drawn) [Compound 13],log P [b],[2],3.49^[b]
same,Efficacy (%),[7],75%
"CC(C)[Si](c1ncc(C(O)(c2ccc(Cl)cc2)C2(Oc3ccccc3)CC2)o1)(C(C)C)C(C)C (stereo not drawn) [Compound 9, (4-chlorophenyl)(1-phenoxycyclopropyl)[2-(triisopropylsilyl)-1,3-oxazol-5-yl]methanol]",chromatographic logP,[8]; pH 2.7,7.36
same,chromatographic logP,[8]; pH 7.8,7.36
"CC(C)(Cc1ccc(Cl)cc1)C(C)(O)c1cncs1 (stereo not drawn) [Compound 22, 4-(4-chlorophenyl)-3,3-dimethyl-2-(1,3-thiazol-5-yl)butan-2-ol]",Efficacy (%),[4],75%
same,Efficacy in %,[1],78%
same,Efficacy in %,[3],80%
same,Efficacy (%),[7],70% and 90%
same,chromatographic logP,[5]; pH 2.7,3.11
same,Efficacy in %,[9],70%
"CC(C)(C)C(O)(CCc1ccc(Cl)cc1)c1cncs1 (stereo not drawn) [drawing 36, reference compound]",Efficacy in %,[9],0%
CC(c1ccc(F)cc1Cl)C(O)(c1cnc(Cl)s1)C(C)(CF)CF (stereo not drawn) [Compound 26],log P [a],[2],4.51^[a]
"OC(Cc1cncs1)(c1ccc(Cl)cc1)C1(Oc2ccc(F)cc2)CC1 (stereo not drawn) [Compound 2, 1-(4-chlorophenyl)-1-[1-(4-fluorophenoxy)cyclopropyl]-2-(1,3-thiazol-5-yl)ethanol]",Efficacy (%),[4],100%
same,Efficacy in %,[6],93%
same,chromatographic logP,[5]; pH 2.7,3.62
same,chromatographic logP,[5]; pH 7.8,3.65
CC(C)(Cc1ccc(OC(F)(F)F)cc1)C(C)(O)c1cncs1 (stereo not drawn) [Compound 17],Efficacy (%),[10],90%
CC(c1ccc(F)cc1Cl)C(O)(c1cncs1)C(C)(CF)CF (stereo not drawn) [Compound 25],log P [b],[2],3.46^[b]
same,Efficacy (%),[4],93%
CC(C)(Cc1ccc(C(F)(F)F)cc1)C(C)(O)c1cncs1 (stereo not drawn) [Compound 21],log P [b],[2],3.34^[b]
same,Efficacy (%),[7],70%
"OC(c1cnc(Cl)s1)(c1ccc(F)cc1F)C1(Oc2ccc(F)cc2F)CC1 (stereo not drawn) [Compound 12, (2-chloro-1,3-thiazol-5-yl)[1-(2,4-difluorophenoxy)cyclopropyl](2,4-difluorophenyl)methanol]",chromatographic logP,[5]; pH 2.7,4.29
same,chromatographic logP,[5]; pH 7.8,4.23
"CC(C)(C)C(O)(c1cncs1)C(C)(C)Oc1ccc(Cl)cc1 (stereo not drawn) [Compound 16, 2-(4-chlorophenoxy)-2,4,4-trimethyl-3-(1,3-thiazol-5-yl)pentan-3-ol]",Efficacy (%),[4],100%
same,chromatographic logP,[5]; pH 2.7,4.13
OC(c1ccc(Br)cc1)(c1cnco1)C1(Oc2ccc(F)cc2)CC1 (stereo not drawn) [Compound 7],log P [b],[2],3.54
same,log P [c],[2],3.52
OC(c1cnco1)(c1ccc(F)cc1F)C1(Oc2ccc(F)cc2F)CC1 (stereo not drawn) [Compound 4],log P [b],[2],3.07
same,log P [c],[2],3.1
"OC(c1ccc(Cl)cc1)(c1cnco1)C1(Oc2ccccc2)CC1 (stereo not drawn) [Compound 8, (4-chlorophenyl)(1,3-oxazol-5-yl)(1-phenoxycyclopropyl)methanol]",chromatographic logP,[5]; pH 2.7,3.37
same,chromatographic logP,[5]; pH 7.8,3.43
CC(C)(C)C(O)(COc1ccc(Cl)cc1)c1cncs1 (stereo not drawn),Efficacy in %,[1],33%
CC(C)(Cc1ccc(I)cc1)C(C)(O)c1cncs1 (stereo not drawn) [Compound 20],log P [b],[2],3.45^[b]
same,Efficacy (%),[10],90%
